# Laboratory results from PubChem BioAssay AID1845194 (Molecular Pharmacology Branch, DTP, NCI, 2023).
# System: 287954-098-R-J1 tumor spheroid viability
# Experiment: Anticancer human tumor 287954-098-R-J1 patient-derived Ewing sarcoma cell line growth inhibition
# Conditions: spheroids with HUVEC and MSC; for IC50: curve of first compound; for viability, T/C: stronger effect = lower value
# Method in brief: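 Single agents and combinations were tested on spheroids built from tumor cells plus HUVEC and hMSC, at half-log dilutions starting at or near clinical Cmax, else 10 microM; final DMSO 0.25% (v/v).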
# [1] = second compound 0.003 µM, first compound 0.0316 µM
# [2] = second compound 0.003 µM, first compound 0.1 µM
# [3] = second compound 0.003 µM, first compound 0.316 µM
# [4] = second compound 0.003 µM, first compound 1 µM
# [5] = second compound 0.003 µM, first compound 3.16 µM
# [6] = second compound 0.003 µM, first compound 10 µM
# 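Note: spheroids exposed to compound for 7 days before viability readout.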
# 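Throughout, for viability, T/C: luminescent signal taken as surrogate of viable cell content; 100% = DMSO vehicle control viability and lower means growth inhibition.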
smiles,measurement,setting,value
CNCc1ccc(-c2cc(-c3nc(-c4ccc(S(=O)(=O)C(C)C)cc4)cnc3N)on2)cc1 + COc1cc2c(cc1O)CCNC21CSC2c3c(OC(C)=O)c(C)c4c(c3C(COC1=O)N1C(O)C3Cc5cc(C)c(OC)c(O)c5C(C21)N3C)OCO4,IC50,second compound 30 pM,516 nM
same,IC50,second compound 94.9 pM,207 nM
same,IC50,second compound 0.0003 µM,154 nM
same,IC50,second compound 0.000949 µM,< 9.49 nM
same,IC50,second compound 0.003 µM,< 9.49 nM
same,"viability, T/C","second compound 30 pM, first compound 0.00949 µM",109%
same,"viability, T/C","second compound 30 pM, first compound 0.03 µM",108%
same,"viability, T/C","second compound 30 pM, first compound 0.0949 µM",110%
same,"viability, T/C","second compound 30 pM, first compound 0.3 µM",94.5%
same,"viability, T/C","second compound 30 pM, first compound 0.949 µM",0.18%
same,"viability, T/C","second compound 30 pM, first compound 3 µM",0.12%
same,"viability, T/C","second compound 94.9 pM, first compound 0.00949 µM",111%
same,"viability, T/C","second compound 94.9 pM, first compound 0.03 µM",106%
same,"viability, T/C","second compound 94.9 pM, first compound 0.0949 µM",113%
same,"viability, T/C","second compound 94.9 pM, first compound 0.3 µM",21.7%
same,"viability, T/C","second compound 94.9 pM, first compound 0.949 µM",0.11%
same,"viability, T/C","second compound 94.9 pM, first compound 3 µM",0.14%
same,"viability, T/C","second compound 0.0003 µM, first compound 0.00949 µM",110%
same,"viability, T/C","second compound 0.0003 µM, first compound 0.03 µM",115%
same,"viability, T/C","second compound 0.0003 µM, first compound 0.0949 µM",85.7%
same,"viability, T/C","second compound 0.0003 µM, first compound 0.3 µM",0.62%
same,"viability, T/C","second compound 0.0003 µM, first compound 0.949 µM",0.04%
same,"viability, T/C","second compound 0.0003 µM, first compound 3 µM",0.13%
same,"viability, T/C","second compound 0.000949 µM, first compound 0.00949 µM",0.42%
same,"viability, T/C","second compound 0.000949 µM, first compound 0.03 µM",0.41%
same,"viability, T/C","second compound 0.000949 µM, first compound 0.0949 µM",0.26%
same,"viability, T/C","second compound 0.000949 µM, first compound 0.3 µM",0.07%
same,"viability, T/C","second compound 0.000949 µM, first compound 0.949 µM",0.03%
same,"viability, T/C","second compound 0.000949 µM, first compound 3 µM",0.14%
same,"viability, T/C","second compound 0.003 µM, first compound 0.00949 µM",0.21%
same,"viability, T/C","second compound 0.003 µM, first compound 0.03 µM",0.22%
same,"viability, T/C","second compound 0.003 µM, first compound 0.0949 µM",0.18%
same,"viability, T/C","second compound 0.003 µM, first compound 0.3 µM",0.17%
same,"viability, T/C","second compound 0.003 µM, first compound 0.949 µM",0.16%
same,"viability, T/C","second compound 0.003 µM, first compound 3 µM",0.24%
[2H]c1nc(C)nc([2H])c1-c1cc(NC[C@@H](C)c2cccc3c(C(=O)NC)ccnc23)ncn1 + COc1cc2c(cc1O)CCNC21CSC2c3c(OC(C)=O)c(C)c4c(c3C(COC1=O)N1C(O)C3Cc5cc(C)c(OC)c(O)c5C(C21)N3C)OCO4,IC50,second compound 30 pM,> 10000 nM
same,IC50,second compound 94.9 pM,> 10000 nM
same,IC50,second compound 0.0003 µM,> 10000 nM
same,IC50,second compound 0.000949 µM,< 31.6 nM
same,IC50,second compound 0.003 µM,< 31.6 nM
same,"viability, T/C","second compound 30 pM, first compound 0.0316 µM",109%
same,"viability, T/C","second compound 30 pM, first compound 0.1 µM",104%
same,"viability, T/C","second compound 30 pM, first compound 0.316 µM",104%
same,"viability, T/C","second compound 30 pM, first compound 1 µM",108%
same,"viability, T/C","second compound 30 pM, first compound 3.16 µM",109%
same,"viability, T/C","second compound 30 pM, first compound 10 µM",98.6%
same,"viability, T/C","second compound 94.9 pM, first compound 0.0316 µM",106%
same,"viability, T/C","second compound 94.9 pM, first compound 0.1 µM",114%
same,"viability, T/C","second compound 94.9 pM, first compound 0.316 µM",107%
same,"viability, T/C","second compound 94.9 pM, first compound 1 µM",110%
same,"viability, T/C","second compound 94.9 pM, first compound 3.16 µM",101%
same,"viability, T/C","second compound 94.9 pM, first compound 10 µM",96.7%
same,"viability, T/C","second compound 0.0003 µM, first compound 0.0316 µM",105%
same,"viability, T/C","second compound 0.0003 µM, first compound 0.1 µM",108%
same,"viability, T/C","second compound 0.0003 µM, first compound 0.316 µM",112%
same,"viability, T/C","second compound 0.0003 µM, first compound 1 µM",107%
same,"viability, T/C","second compound 0.0003 µM, first compound 3.16 µM",95.4%
same,"viability, T/C","second compound 0.0003 µM, first compound 10 µM",89.2%
same,"viability, T/C","second compound 0.000949 µM, first compound 0.0316 µM",0.38%
same,"viability, T/C","second compound 0.000949 µM, first compound 0.1 µM",0.51%
same,"viability, T/C","second compound 0.000949 µM, first compound 0.316 µM",0.33%
same,"viability, T/C","second compound 0.000949 µM, first compound 1 µM",0.67%
same,"viability, T/C","second compound 0.000949 µM, first compound 3.16 µM",0.26%
same,"viability, T/C","second compound 0.000949 µM, first compound 10 µM",0.31%
same,"viability, T/C",[1],0.21%
same,"viability, T/C",[2],0.24%
same,"viability, T/C",[3],0.17%
same,"viability, T/C",[4],0.15%
same,"viability, T/C",[5],0.14%
same,"viability, T/C",[6],0.25%
CC(C)n1c(=O)n(C)c2cnc3cc(F)c(-c4ccc(OCCCN5CCCCC5)nc4)cc3c21 + CC[C@@]1(O)C(=O)OCc2c1cc1n(c2=O)Cc2cc3c(CN(C)C)c(O)ccc3nc2-1,IC50,second compound 0.003 µM,< 31.6 nM
same,IC50,second compound 0.00949 µM,< 31.6 nM
same,IC50,second compound 0.03 µM,< 31.6 nM
same,IC50,second compound 0.0949 µM,< 31.6 nM
same,IC50,second compound 0.3 µM,< 31.6 nM
same,"viability, T/C",[1],24.4%
same,"viability, T/C",[2],25.2%
same,"viability, T/C",[3],14.1%
same,"viability, T/C",[4],18%
same,"viability, T/C",[5],18.6%
same,"viability, T/C",[6],0.6%
same,"viability, T/C","second compound 0.00949 µM, first compound 0.0316 µM",1.98%
same,"viability, T/C","second compound 0.00949 µM, first compound 0.1 µM",1.84%
same,"viability, T/C","second compound 0.00949 µM, first compound 0.316 µM",1.79%
same,"viability, T/C","second compound 0.00949 µM, first compound 1 µM",1.85%
same,"viability, T/C","second compound 0.00949 µM, first compound 3.16 µM",1.45%
same,"viability, T/C","second compound 0.00949 µM, first compound 10 µM",0.25%
same,"viability, T/C","second compound 0.03 µM, first compound 0.0316 µM",1.57%
same,"viability, T/C","second compound 0.03 µM, first compound 0.1 µM",1.36%
same,"viability, T/C","second compound 0.03 µM, first compound 0.316 µM",1.48%
same,"viability, T/C","second compound 0.03 µM, first compound 1 µM",1.56%
same,"viability, T/C","second compound 0.03 µM, first compound 3.16 µM",1.35%
same,"viability, T/C","second compound 0.03 µM, first compound 10 µM",0.27%
same,"viability, T/C","second compound 0.0949 µM, first compound 0.0316 µM",1.39%
same,"viability, T/C","second compound 0.0949 µM, first compound 0.1 µM",1.29%
same,"viability, T/C","second compound 0.0949 µM, first compound 0.316 µM",1.62%
same,"viability, T/C","second compound 0.0949 µM, first compound 1 µM",1.24%
same,"viability, T/C","second compound 0.0949 µM, first compound 3.16 µM",1.02%
same,"viability, T/C","second compound 0.0949 µM, first compound 10 µM",0.43%
same,"viability, T/C","second compound 0.3 µM, first compound 0.0316 µM",1.39%
same,"viability, T/C","second compound 0.3 µM, first compound 0.1 µM",1.68%
same,"viability, T/C","second compound 0.3 µM, first compound 0.316 µM",1.34%
same,"viability, T/C","second compound 0.3 µM, first compound 1 µM",1.48%
same,"viability, T/C","second compound 0.3 µM, first compound 3.16 µM",1.35%
same,"viability, T/C","second compound 0.3 µM, first compound 10 µM",0.58%
